How the values were obtained:
hSLC13A5 [1] = target: T1, hSLC13A5 (Homo sapiens, UniProt Q86YT5); test: HepG2/14C-citrate uptake assay; type: cell-based; set-up: HepG2 cells endogenously express hSLC13A5 transporter which is responsible for the uptake of citrate into these cells; endogenous in cells; host or cells: HepG2; details: HepG2 cells endogenously expressing hSLC13A5; Cytostar-T; 14C-citrate ~1.8 μM; incubation over night
From the text: (4) HepG2/^14C-Citrate Uptake Assay
HepG2 cells endogenously expressing hSLC13A5 were obtained from the Wistar Institute (Knowles et al., Science 1980, 209, 497-499).
HepG2 cells endogenously express hSLC13A5 transporter which is responsible for the uptake of citrate into these cells. […] The uptake of ^14C-citrate into HepG2 cells is monitored using the Cytostar-T assay. This assay format is based on the imported radioactive citrate brought into proximity with the scintillant contained within the base of the plate by virtue of the biological processes within the cells. The radioactive decay is converted to a light signal based on the integration of the scintillation matrix into the assay plate.
(§1) Method: ^14C-Citrate Uptake Assay
Starting from 10 mM stock solutions in 100% DMSO, compounds are diluted in pure DMSO using the appropriate dilution steps. Prior to the uptake assay, 400 μL assay medium+4.8 μL compound solution (or pure DMSO for non-inhibited control wells) are mixed (final DMSO concentration in the assay: 1% (v/v)) ^14C-citrate working solution (volumes required per 96-well):
The HepG2 cells are cultivated in cell culture medium (EMEM+10% fetal calf serum+1×NEAA and 10 mM L-Glutamin) For the assay, the medium of the confluent cultures is discarded and the cells are washed with DPBS w/o Mg^2+ w/o Ca^2+. The cells are detached by the addition of 1.0 mL 2× Trypsin in DPBS w/o Mg^2+ w/o Ca^2+ with 7.5 mM EDTA per 75 cm^2 culture flask for up to 3 minutes at 37° C. and resuspended in 10 mL cell culture medium. Following cell counting, 100,000 cells/well are seeded in a volume of 200 μL into Cytostar-T Scintillating 96-well microplates. After overnight incubation in a humid cell culture incubator at 37° C., 5% CO2, the cell culture medium is carefully aspirated and the cells are incubated with 200 μL prewarmed (37° C.) assay medium (50% DMEM+50% Ham's F-12+15 mM HEPES (pH 7.4) (medium contains 15.5 m M D(+)-glucose) per well for at least 1 h prior to the experiment.
Immediately prior to uptake assay, the assay medium is carefully removed and 100 μL test compound dilution is added to each well (n=3).
Following a 20 min incubation at 37° C. in the cell culture incubator, 20 μL of ^14C-citrate working solution is added to each well (final volume per well: 120 μL; final ^14C-citrate concentration ˜1.8 μM/well)).
After incubation over night at 37° C. in the cell culture incubator, the plates are sealed on the top using a transparent plastic foil and on the bottom using a white plastic foil. Following the sealing, the plate is placed into the TopCount NXT HTS and the signal is recorded.
(§2) The IC50 values of the compounds are calculated in IDBS XLfit by sigmoidal dose-response (variable slope).

hSLC13A5 [2] = target: T1, hSLC13A5; test: Recombinant hSLC13A5/14C-citrate uptake assay; type: cell-based; details: HEK293 Flp-In cells over-expressing hSLC13A5; WGA-PVT SPA beads; 14C-citrate approx. 2 μM; 4 h
From the text: (5) Recombinant hSLC13A5/^14C-Citrate Uptake Assay
The human embryonic kidney 293 (HEK 293)-Flp-In cells (293Flp-In-hSLC13A5) over-expressing hSLC13A5 transporter were cloned: The originating plasmid pcDNA3.1-hSLC13A5 containing hSLC13A5 was synthesized at GeneArt. The cDNA for hSLC13A5 was taken from this plasmid by means of PCR amplification using primers with added HindIII (N-terminal) and XhoI (C-terminal) restriction sites and sub-cloned in frame into pcDNA5/FRT from Invitrogen using the respective restriction enzymes. HEK293 Flp-In cells from Invitrogen were stably co-transfected using the pcDNA/FRT-hSLC13A5 plasmid as well as the pOG44 plasmid.
HEK 293-Flp-In cells are used that stably over-express hSLC13A5 transporter which is responsible for the uptake of citrate into these cells.
The uptake of ^14C-citrate into the 293Flp-In-hSLC13A5 cells is monitored using the WGA-PVT SPA (wheat germ agglutinin-polyvinyltoluene scintillation proximity assay) beads that bind to the 293Flp-In cells due to their WGA-PVT surface. This assay format is based on the imported radioactive citrate brought into proximity with the SPA beads by virtue of the biological processes within the cells. The radioactive decay is converted into a light signal that can be measured using e.g. the TopCount plate reader.
as §1
Test Compound Dilutions (2Fold-Concentrated):
Starting from 10 mM stock solutions in 100% DMSO, compounds are diluted in pure DMSO using the appropriate dilution steps.
Prior to the uptake assay, 200 μL assay medium (lx HBSS (with Ca^2+ and Mg^2+, w/o Phenolred), contains 5.56 mM D(+)-Glucose)+19.44 mM D(+)-Glucose (final concentration of D(+)-Glucose is 25 mM))+4.8 μL compound solution (or pure DMSO for non-inhibited control wells) are mixed (final DMSO concentration in the assay: 1% (v/v)).
After preparing the 2fold-concentrated test compound dilutions, 50 μL are pipetted to each well of white OptiPlates-96 and incubated at 37° C. in an incubator.
^14C-Citrate Working Solution (Volumes Required Per 96-Well):
The 293Flp-In-hSLC13A5 cells are cultivated in cell culture medium (DMEM+10% fetal calf serum+100 μg/mL Hygromycin B). The medium of the confluent cultures is discarded and the cells are washed with DPBS (w/o Mg^2+ w/o Ca^2+). The cells are detached by the addition of 2.0 mL Accumax per 75 cm^2 culture flask for up to 3 minutes at 37° C. and resuspended in 10 mL assay medium. After cell counting, 50,000 cells/well are administered in a volume of 50 μL into the white OptiPlates-96 containing the respective test compound concentrations. Following a 20 min incubation at 37° C. in the cell culture incubator, 20 μL of ^14C-citrate working solution is added to each well (final volume per well: 120 μL; final ^14C-citrate concentration: approx. 2 μM/well).
After incubation for 4 h at 37° C. in a humid cell culture incubator and the addition of 30 μL of WGA-PVT SPA beads to each well (0.25 mg/well), the plates are sealed on the top using a transparent plastic foil. Incubate the plates for 1 h by room temperature and gentle shaking.
After incubation, the plate is placed into the TopCount NXT HTS and the signal is recorded.
The performance of the test compounds is calculated as follows:
Wells containing cells incubated with 1% DMSO only deliver values for the non-inhibited ^14C-citrate uptake into 293Flp-In-hSLC13A5 cells (100% CTL). Wells containing cells which have received 30 mM non-labelled potassium citrate solution in addition to the ^14C-citrate working solution deliver values for the background (0% CTL).
as §2

T1 sequence (Q86YT5 whole entry): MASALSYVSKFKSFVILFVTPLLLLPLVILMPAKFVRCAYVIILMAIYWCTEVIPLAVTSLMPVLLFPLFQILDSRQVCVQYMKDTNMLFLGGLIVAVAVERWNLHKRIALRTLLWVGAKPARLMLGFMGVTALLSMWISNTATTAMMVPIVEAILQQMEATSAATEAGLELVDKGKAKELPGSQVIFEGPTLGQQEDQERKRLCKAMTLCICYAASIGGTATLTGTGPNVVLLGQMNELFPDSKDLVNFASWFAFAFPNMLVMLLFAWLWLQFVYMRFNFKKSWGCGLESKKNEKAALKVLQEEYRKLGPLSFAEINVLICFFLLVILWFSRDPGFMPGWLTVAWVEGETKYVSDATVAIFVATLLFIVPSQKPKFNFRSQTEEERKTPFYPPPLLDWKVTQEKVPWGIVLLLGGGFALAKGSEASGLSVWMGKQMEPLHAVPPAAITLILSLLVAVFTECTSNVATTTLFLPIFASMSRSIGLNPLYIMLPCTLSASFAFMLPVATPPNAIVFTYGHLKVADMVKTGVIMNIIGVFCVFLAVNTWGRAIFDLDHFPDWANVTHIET

Structure (SMILES) | IC50 (hSLC13A5 [1]) | IC50 (hSLC13A5 [2])
O=C(NCc1ccccc1Br)C1CCN(S(=O)(=O)c2cc(Cl)cc(Cl)c2)CC1 [(I-6)] | 82 nM | 
Cc1cc(C)cc(S(=O)(=O)N2CCC(C(=O)NCc3ccc(Br)cc3)CC2)c1 [(I-48)] | 17 nM | 
COc1ccccc1CNC(=O)C1CCN(S(=O)(=O)c2cc(Br)cc(Br)c2)CC1 [(I-34)] | 27 nM | 
Cc1ccc(CNC(=O)C2CCN(S(=O)(=O)c3cc(Cl)cc(Cl)c3)CC2)cc1 [(I-8)] | 37 nM | 
O=C(NCc1cc(F)ccc1F)C1CCN(S(=O)(=O)c2cc(Cl)cc(Cl)c2)CC1 [(I-24)] | 83 nM | 
CCOc1cc(Cl)cc(S(=O)(=O)N2CCC(C(=O)NCc3ccc(C#N)cc3)CC2)c1 [(I-54)] | 62 nM | 231 nM
O=C(NCc1ccc(Cl)nc1)C1CCN(S(=O)(=O)c2cc(Cl)cc(Cl)c2)CC1 [(I-3)] | 471 nM | 
O=C(NCc1ccccc1F)C1CCN(S(=O)(=O)c2cc(Br)cc(Br)c2)CC1 [(I-38)] | 14 nM | 
CCOc1cc(Cl)cc(S(=O)(=O)N2CCC(C(=O)NCc3ccc(Cl)cn3)CC2)c1 [(I-52)] | 51 nM | 200 nM
O=C(NCc1nccs1)C1CCN(S(=O)(=O)c2cc(Cl)cc(Cl)c2)CC1 [(I-9)] | 246 nM | 303 nM
COc1ncccc1CNC(=O)C1CCN(S(=O)(=O)c2cc(Br)cc(Br)c2)CC1 [(I-33)] | 182 nM | 275 nM
Cc1ccc(CNC(=O)C2CCN(S(=O)(=O)c3cc(Cl)cc(Cl)c3)CC2)cn1 [(I-16)] | 632 nM | 675 nM
CCOc1cc(Cl)cc(S(=O)(=O)N2CCC(C(=O)NCc3ccccn3)CC2)c1 [(I-53)] | 110 nM | 410 nM
N#Cc1ccc(CNC(=O)C2CCN(S(=O)(=O)c3cc(Br)cc(Br)c3)CC2)cc1 [(I-32)] | 23 nM | 
Cc1cc(C)cc(CNC(=O)C2CCN(S(=O)(=O)c3cc(Cl)cc(Cl)c3)CC2)c1 [(I-4)] | 94 nM | 
O=C(NCc1ccc(Br)cc1)C1CCN(S(=O)(=O)c2cc(Cl)cc(Cl)c2)CC1 [(I-7)] | 30 nM | 
O=C(NCc1cccc(Cl)n1)C1CCN(S(=O)(=O)c2cc(Cl)cc(Cl)c2)CC1 [(I-26)] | 290 nM | 449 nM
COc1ccccc1CNC(=O)C1CCN(S(=O)(=O)c2cc(Cl)cc(Cl)c2)CC1 [(I-21)] | 65 nM | 
CCOc1cc(Cl)cc(S(=O)(=O)N2CCC(C(=O)NCc3ccc(F)cc3)CC2)c1 [(I-51)] | 14 nM | 66 nM
Cc1csc(CNC(=O)C2CCN(S(=O)(=O)c3cc(Br)cc(Br)c3)CC2)n1 [(I-29)] | 43 nM | 
O=C(NCc1ccc(Cl)cn1)C1CCN(S(=O)(=O)c2cc(Cl)cc(Cl)c2)CC1 [(I-12)] | 103 nM | 132 nM

Structure (SMILES) | IC50 (hSLC13A5 [1]) | IC50 (hSLC13A5 [2])
Cc1cc(C)cc(S(=O)(=O)N2CCC(C(=O)NCc3nc(C)cs3)CC2)c1 [(I-41)] | 155 nM | 438 nM
CCOc1cc(Cl)cc(S(=O)(=O)N2CCC(C(=O)NCc3ccc(F)cn3)CC2)c1 [(I-55)] | 56 nM | 189 nM
O=C(NCc1ccc(F)cc1)C1CCN(S(=O)(=O)c2cc(Br)cc(Br)c2)CC1 [(I-40)] | 17 nM | 26 nM
O=C(NCc1ccc(Br)cc1)C1CCN(S(=O)(=O)c2cc(Br)cc(Br)c2)CC1 [(I-39)] | 14 nM | 
O=C(NCc1cccnc1)C1CCN(S(=O)(=O)c2cc(Br)cc(Br)c2)CC1 [(I-36)] | 448 nM | 354 nM
O=C(NCc1ccc(F)cc1Cl)C1CCN(S(=O)(=O)c2cc(Cl)cc(Cl)c2)CC1 [(I-22)] | 84 nM | 
N#Cc1ccc(CNC(=O)C2CCN(S(=O)(=O)c3cc(Cl)cc(Cl)c3)CC2)c(F)c1 [(I-23)] | 142 nM | 91 nM
O=C(NCc1ccccn1)C1CCN(S(=O)(=O)c2cc(Br)cc(Br)c2)CC1 [(I-37)] | 253 nM | 89 nM
Cc1cc(C)cc(S(=O)(=O)N2CCC(C(=O)NCc3ccc(F)cc3)CC2)c1 [(I-42)] | 35 nM | 
O=C(NCc1ccc(Cl)cc1F)C1CCN(S(=O)(=O)c2cc(Cl)cc(Cl)c2)CC1 [(I-25)] | 37 nM | 
COc1cc(Cl)cc(S(=O)(=O)N2CCC(C(=O)NCc3ccc(F)cc3)CC2)c1 [(I-57)] | 48 nM | 167 nM
O=C(NCc1ccccc1Cl)C1CCN(S(=O)(=O)c2cc(Cl)cc(Cl)c2)CC1 [(I-18)] | 60 nM | 
O=C(NCc1ccc(Br)cn1)C1CCN(S(=O)(=O)c2cc(Cl)cc(Cl)c2)CC1 [(I-28)] | 171 nM | 127 nM
O=C(NCc1ccc(Cl)cc1)C1CCN(S(=O)(=O)c2cc(Br)cc(Br)c2)CC1 [(I-30)] | 14 nM | 
Cc1csc(CNC(=O)C2CCN(S(=O)(=O)c3cc(Cl)cc(Cl)c3)CC2)n1 [(I-14)] | 83 nM | 
Cc1cc(C)cc(S(=O)(=O)N2CCC(C(=O)NCc3ccc(C#N)cc3)CC2)c1 [(I-43)] | 46 nM | 
COc1ccccc1CNC(=O)C1CCN(S(=O)(=O)c2cc(C)cc(C)c2)CC1 [(I-44)] | 132 nM | 703 nM
COc1ncccc1CNC(=O)C1CCN(S(=O)(=O)c2cc(Cl)cc(Cl)c2)CC1 [(I-13)] | 201 nM | 475 nM
Cc1cc(C)cc(S(=O)(=O)N2CCC(C(=O)NCc3ccccc3F)CC2)c1 [(I-47)] | 34 nM | 
Cc1ccccc1CNC(=O)C1CCN(S(=O)(=O)c2cc(Cl)cc(Cl)c2)CC1 [(I-19)] | 72 nM | 
Cc1cc(C)cc(S(=O)(=O)N2CCC(C(=O)NCc3ccc(Cl)cc3)CC2)c1 [(I-45)] | 25 nM | 
